Assay results as given in US6632833B1, “2-(2-methylphenyl)-3,4-dihydro-2H-pyrrole derivatives” (Bayer Aktiengesellschaft, priority 1998, dated 2003).
Read-outs that look alike come from different tables or passages of the source.

Columns and labels:
HPLC log P determination = type: physicochemical; details: alkane/water partition, estimated by HPLC retention
Experimental: * log P=[…] logarithm to base 10 of the alkane/water partition coefficient, determined by HPLC analysis using water/acetonitrile as mobile phase on 125×4.0 mm Kromasil […] (5 μm); flow rate: 1.5 ml/min.

[1] = tested on: larvae of the mustard beetle (Phaedon cochleariae); experiment: Phaedon larvae test; type: in vivo; details: dipped cabbage leaves
Experimental: Phaedon larvae test [table] To produce a suitable preparation of active compound, 1 part by weight of active compound is mixed with the stated amounts of solvent and emulsifier, and the concentrate is diluted with emusifier-containing water to the desired concentration. Cabbage leaves (Brassica oleracea) are treated by being dipped into the preparation of active compound of the desired concentration and are populated with larvae of the mustard beetle (Phaedon cochleariae) while the leaves are still moist.

[2] = tested on: all stages of the greenhouse red spider mite (Tetranychus urticae); experiment: Tetranychus test (OP-resistant/dip treatment); type: in vivo; details: after 7 days, dipped bean plants
Experimental: Tetranychus test (OP-resistant/dip treatment)
To produce a suitable preparation of active compound, 1 part by weight of active compound is mixed with the stated amounts of solvent and emulsifier, and the concentrate is diluted with emulsifier-containing water to the desired concentration.
Bean plants (Phaseolus vulgaris) which are heavily infested by all stages of the greenhouse red spider mite (Tetranychus urticae) are dipped into a preparation of the active compound of the desired concentration.
After the desired period of time, the action in % is determined. 100% means that all spider mites have been killed; 0% means that none of the spider mites have been killed.

[3] = tested on: caterpillars of the army-worm (Spodoptera frugiperda); experiment: Spodoptera frugiperda test; type: in vivo; details: dipped cabbage leaves
Experimental: Spodoptera frugiperda test
(§1) To produce a suitable preparation of active compound, 1 part by weight of active compound is mixed with the stated amounts of solvent and emulsifier, and the concentrate is diluted with emusifier-containing water to the desired concentration.
Cabbage leaves (Brassica oleracea) are treated by being dipped into the preparation of active compound of the desired concentration and are populated with caterpillars of the army-worm (Spodoptera frugiperda) while the leaves are still moist.
(§2) After the desired period of time, the kill in % is determined. 100% means that all caterpillars have been killed; 0% means that none of the caterpillars have been killed.

[4] = tested on: caterpillars of the cotton bollworm (Heliothis armigera); experiment: Heliothis armigera test; type: in vivo; details: concentration of active compound 0.004%; after 6 days; dipped soybean shoots
Experimental: as §1
Soybean shoots (Glycine max) are treated by being dipped into the preparation of active compound of the desired concentration and are populated with caterpillars of the cotton bollworm (Heliothis armigera) while the leaves are still moist.
as §2

[5] = tested on: caterpillars of the diamond-back moth (Plutella xylostella); experiment: Plutella test; type: in vivo; details: concentration of active compound 0.004%; after 6 days; dipped cabbage leaves
Experimental: as §1
Cabbage leaves (Brassica oleracea) are treated by being dipped into the preparation of active compound of the desired concentration and are populated with caterpillars of the diamond-back moth (Plutella xylostella) while the leaves are still moist.
as §2

[6] = pH 2.3, read-out: HPLC log P (pH 2.3)
[7] = concentration of active compound 0.01%, after 7 days
[8] = concentration of active compound 0.004%, after 6 days

SMILES: O=C1CCC(c2ccc(-c3ccc(OC(F)(F)C(F)F)cc3)cc2)N1 (stereo not drawn) [Example XI-43]
- chromatographic logP (HPLC log P determination; pH 2-3, read-out: HPLC log P (pH 2-3)): 2.79

SMILES: Cc1ccccc1C(=O)CCC(NC(=O)OC(C)(C)C)c1ccc(-c2ccc(OC(F)(F)C(F)F)cc2)cc1 (stereo not drawn) [Example VIII-43]
- chromatographic logP (HPLC log P determination; [6]): 5.05

SMILES: Cc1ccccc1C1=NC(c2ccc(-c3ccc(OC(F)(F)C(F)F)cc3)cc2)CC1 (stereo not drawn) [Example I-43]
- kill in % [1, 7]: 100%
- chromatographic logP (HPLC log P determination; [6]): 3.02
- kill (action in %) ([2]; concentration of active compound 0.01%): 100%
- kill in % [3, 7]: 100%

SMILES: Cc1ccccc1C1=NC(c2ccc(-c3ccc(OC(F)(F)F)cc3)cc2)CC1 (stereo not drawn) [Example I-9]
- kill in % [1, 8]: 100%
- kill in % [4]: 100%
- chromatographic logP (HPLC log P determination; neutral, HPLC, water/acetonitrile mobile phase, read-out: HPLC log P (neutral)): 6.05
- kill (action in %) ([2]; concentration of active compound 0.004%): 98%
- kill in % [5]: 100%
- kill in % [3, 8]: 100%
